Data as given in patent US20240197728A1, “METHODS AND PHARMACEUTICAL COMPOSITIONS FOR TREATING REFRACTORY EPILEPSY” (INSERM (INSTITUT NATIONAL DE LA SANTÉ ET DE LA RECHERCHE …, priority 2021, published 2024).

Experiments:
synaptic GABAA receptors = assay: Miniature inhibitory postsynaptic currents (mIPSCs) in hippocampal neurons; type: cell-based, rat
[1] = system: extrasynaptic GABAA receptors; assay: GABAA receptor-mediated currents evoked by focal isoguvacine or RubiGABA uncaging; type: cell-based, rat
SPAK = assay: Immunoblot of SPAK phosphorylation and expression in hippocampo-cortical slices; type: cell-based, rat; conditions: vs DMSO
Procedure: (§1) For all experiments on hippocampal cultures, neurons were pre-incubated for 2 hours with either DMSO, PCPZ or CLP257 in a CO2 incubator set at 37° C. Drugs were added directly to the culture medium. For electrophysiology experiments, neurons were also recorded in presence of these drugs in the bath. For biochemistry experiments on rat hippocampo-cortical slices, slices were incubated with either DMSO (vehicle), CLP257, PCPZ, WNK463 or sodium orthovanadate for 2 hours in interface chambers set at 37° C. For human tissue experiments, slices were pre-incubated with either DMSO, CLP257 or PCPZ for 2 hours in interface chambers set at 37° C. and then also recorded in presence of these compounds.
8-weeks old Sprague Dawley male rats were anesthetized by intraperitoneal ketamine/xylazine injection (120/10 mg/kg) and perfused transcardially with ice-cold (0-4° C.), oxygenated solution (O2/CO2 95/5%), containing (in mM): N-methyl-d-glucamine 93, KCl 2.5, NaH2PO4 1.2, NaHCO330, HEPES 20, D-glucose 20, ascorbic acid 5, sodium pyruvate 3, MgSO4 10 and CaCl2) 0.5 (300-310 mOsm, pH7.4). Brains were removed and transverse hippocampo-cortical slices (400 m thick) were prepared in the same solution using a vibratome (HM650V, Microm). Slices were then incubated for 2-hours with DMSO, the KCC2 enhancers (CLP257, PCPZ, WNK43) or sodium orthovanadate in an interface chamber containing artificial cerebrospinal fluid (ACSF) composed of (in mM): D-glucose 10, KCl 3.5, NaHOC3 26, NaH2PO4 1.25, NaCl 126, CaCl2) 1.6 and MgCl2 1.2 (290 mOsm), equilibrated with 5% CO2 in 95% 02. After the treatments, slices were washed with cold PBS, instantaneously frozen with liquid nitrogen and stored at −80° C.
Slices were mechanically lysed on ice, using a 2 mL Dounce, in a buffer containing (in mM): Tris/HCl, pH 7.5 50, EGTA 1, EDTA 1, sodium orthovanadate 1, sodium-B-glycerophosphate 10, sodium fluoride 50, sodium pyrophosphate 5, sucrose 270, benzamidine 1, phenylmethylsulfonyl fluoride 2, Triton […], (v/v) 2-mercaptoethanol 0.1% and protease inhibitors (Roche). After complete homogenization, samples were centrifuged (16,000×g at 4° C. for 10 min) and the supernatant was collected. Protein quantification was done using Pierce BCA Protein Assay kit (Thermo Scientific) with BSA as standard.
Samples were subjected to electrophoresis on polyacrylamide gradient gels (4-12% bis-tris gels) and transferred to nitrocellulose membranes. Membranes were rinsed with TBS-tween solution (TBST; Invitrogen) and blocked with 5% (w/v) skim milk. […] Fluorescence was detected and the relative intensities of immunoblot bands were determined using Odyssey infrared imaging system (LI-COR Bioscience). […]

[2] = system: spontaneous interictal-like discharges (IIDs) in slices from mTLE patients; assay: Multielectrode array recording of postoperative hippocampal-subicular slices from mTLE patients; type: cell-based, human; conditions: for effect on proportion of slices displaying IIDs: p<0.05
Procedure: as §1
Patients or their legal guardians gave informed consent to participate in the study. Patients ([…], 3 males, 4 female, age range: 16-54 years) diagnosed with mesial temporal lobe epilepsy with hippocampal sclerosis underwent multimodal preoperative neurological, neurophyschological and psychiatric evaluations as well as video-electroencephalographic recording, magnetic resonance imaging and fluorodeooxyglugose positron emission tomography. Cortectomies were performed at Sainte-Anne Hospital by neurosurgeons B. Devaux and B. Turak and at Pitié-Salpêtriére Hospital by neurosurgeons S. Clemenceau and B. Mathon. Cortical specimens collected in the operating room were immediately transported in ice-cold (0-4° C.), oxygenated solution (O2/CO2 95/5%), containing (in mM): N-methyl-d-glucamine 93, KCl 2.5, NaH2PO4 1.2, NaHCO3 30, HEPES 20, D-glucose 20, ascorbic acid 5, sodium pyruvate 3, MgSO4 10 and CaCl2 0.5 (300-310 mOsm, pH7.4) and transported within 15 minutes to the laboratory. Transverse hippocampal-subicular slices (400 m thick) were prepared in the same solution using a vibratome (HM650V, Microm). They were maintained for 20-30 minutes at 37° C. and then at room temperature in an interface chamber containing artificial cerebrospinal fluid (ACSF) composed of (in mM): D-glucose 10, KCl 3.5, NaHOC3 26, NaH2PO4 1.25, NaCl 126, CaCl2 1.6 and MgCl2 1.2 (290 mOsm), equilibrated with 5% CO2 in 95% 02.
Multielectrode array recordings were performed using a MEA2100 station (Multi Channel Systems) equipped with a 120-microelectrode array chamber (custom 12×10 layout, 30 μm TiN electrodes spaced 1 mm vertical and 1.5 mm horizontal). Slices were maintained in the recording chamber using a home-made platinum-nylon harp and superfused with pre-warmed (37° C.) oxygenated ACSF at a rate of 6 ml/min. Slices were imaged using a video-microscope table (MEA-VMT1, Multi Channel Systems) in order to register the location of electrodes with respect to the slice. Extracellular signals were acquired at a sampling rate of 10 kHz using Multi Channel Experimenter (Multi Channel Systems) and analyzed offline using homemade software (Matlab, The Mathworks).

[3] = 100 μM CLP257, 2 h, slices from 5 out of 6 patients
[4] = 100 μM CLP257, 2 h, slices from the remaining patient

CN1CCN(CCCN2c3ccccc3Sc3ccc(Cl)cc32)CC1 [PCPZ, prochlorperazine]
mIPSCs decay time constant (synaptic GABAA receptors; 10 μM PCPZ, before drug 10.66±0.80): 10.17 ± 0.71 ms
mIPSCs amplitude (synaptic GABAA receptors; 10 μM PCPZ, before drug 42.49±2.54): 42.92±2.55 pA
decay time constant of GABAA receptor-mediated currents ([1]; acute 10 μM PCPZ, isoguvacine 100 μM, control 127.66±10.23): 130.81 ± 10.48 ms
amplitude of GABAA receptor-mediated currents ([1]; acute 10 μM PCPZ, isoguvacine 100 μM, control 150.73±17.50): 157.51±25.46 pA
change of SPAK phosphorylation (S373 residue) (SPAK; 10 μM PCPZ, 2 h): +36.90±48.40%
mTLE patients whose slices showed suppressed IIDs ([2]; 10 μM PCPZ, 2 h): 5 out of 7
change of IID amplitude ([2]; 10 μM PCPZ, 2 h, group I (5 mTLE patients)): +9.0%
reduction of IID frequency ([2]; 10 μM PCPZ, 2 h, group I (5 mTLE patients, responders)): 97.55±13.8%
change of IID amplitude ([2]; 10 μM PCPZ, 2 h, group II (2 patients)): +18.2±4.8%
change of IID frequency ([2]; 10 μM PCPZ, 2 h, group II (2 patients, non-responders)): +25.5±15.9%
effect on proportion of slices displaying IIDs ([2]; 10 μM PCPZ, 2 h incubation vs DMSO): significantly reduced

O=C1N=C(N2CCCCN2)S/C1=C\c1ccc(F)cc1O [CLP257, (5Z)-5-[(4-Fluoro-2-hydroxyphenyl)methylene]-2-(tetrahydro-1-(2H)-pyridazinyl)-4(5H)-thiazolone]
mIPSCs decay time constant (synaptic GABAA receptors; 100 μM CLP257, before drug 12.36±0.75): 12.53 ± 1.01 ms
mIPSCs amplitude (synaptic GABAA receptors; 100 μM CLP257, before drug 42.32±3.40): 43.77±2.86 pA
decay time constant of GABAA receptor-mediated currents ([1]; 100 μM CLP257, RubiGABA 30 μM, control 124.39±9.12): 218.22 ± 21.05 ms
amplitude of GABAA receptor-mediated currents ([1]; 100 μM CLP257, RubiGABA 30 μM, control 164.70±4.56): 162.04±6.62 pA
change of SPAK phosphorylation (S373 residue) (SPAK; 100 μM CLP257, 2 h): +33.30±24.00%
change of total expression of SPAK (SPAK; 100 μM CLP257, 2 h): −5.97±17.4%
patients whose slices showed reduced IID frequency ([2]; 100 μM CLP257, 2 h): 5 out of 6
change of IID amplitude [2, 3]: +134.4%
reduction of IID frequency [2, 3]: 96.5±2.31%
change of IID amplitude [2, 4]: −24.5%
change of IID frequency [2, 4]: +12.6%
effect on proportion of slices displaying IIDs ([2]; 100 μM CLP257, 2 h incubation vs DMSO): significantly reduced
